Test results as given in PubChem BioAssay (NCI).
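Compound exposure: 48 hours, 5 concentrations, 96-well plates. GI50: concentration for 50% inhibition of growth. The concentration for full growth arrest is given as TGI.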

Columns and labels:
Assay in all cases: DTP human tumour cell line panel, 48 h
786-0 renal = test system: 786-0 renal
A498 renal = test system: A498 renal
A549 NSCLC = test system: A549 NSCLC
ACHN renal = test system: ACHN renal
BT-549 breast = test system: BT-549 breast
CAKI-1 renal = test system: CAKI-1 renal
CCRF-CEM leukemia = test system: CCRF-CEM leukemia
COLO 205 colon = test system: COLO 205 colon
DU-145 prostate = test system: DU-145 prostate
HCC-2998 colon = test system: HCC-2998 colon
HCT-116 colon = test system: HCT-116 colon
HL-60(TB) leukemia = test system: HL-60(TB) leukemia
HOP-62 NSCLC = test system: HOP-62 NSCLC
HOP-92 NSCLC = test system: HOP-92 NSCLC
HS 578T breast = test system: HS 578T breast
HT29 colon = test system: HT29 colon
IGROV1 ovarian = test system: IGROV1 ovarian
K-562 leukemia = test system: K-562 leukemia
KM12 colon = test system: KM12 colon
M14 melanoma = test system: M14 melanoma
MALME-3M melanoma = test system: MALME-3M melanoma
MCF7 breast = test system: MCF7 breast
MDA-MB-231 breast = test system: MDA-MB-231 breast
MDA-MB-435 = test system: MDA-MB-435
MOLT-4 leukemia = test system: MOLT-4 leukemia
NCI-H226 lung = test system: NCI-H226 lung
NCI-H23 lung = test system: NCI-H23 lung

C[C@]12CC[C@@H]3c4ccc(O)cc4CC[C@H]3[C@@H]1CC[C@@H]2NS(=O)(=O)c1ccc(Br)cc1
GI50 (786-0 renal): 3.07 µM
TGI (786-0 renal): 8.86 µM
GI50 (A498 renal): 1.61 µM
TGI (A498 renal): 3.7 µM
GI50 (A549 NSCLC): 2.89 µM
TGI (A549 NSCLC): 11.1 µM
GI50 (ACHN renal): 3.17 µM
TGI (ACHN renal): 11.1 µM
GI50 (BT-549 breast): 2.27 µM
TGI (BT-549 breast): 4.72 µM
GI50 (CAKI-1 renal): 3.12 µM
TGI (CAKI-1 renal): 10.2 µM
GI50 (CCRF-CEM leukemia): 3.14 µM
TGI (CCRF-CEM leukemia): > 100 µM
GI50 (COLO 205 colon): 2.12 µM
TGI (COLO 205 colon): 4.04 µM
GI50 (DU-145 prostate): 3.91 µM
TGI (DU-145 prostate): 12.7 µM
GI50 (HCC-2998 colon): 3.21 µM
TGI (HCC-2998 colon): 10.5 µM
GI50 (HCT-116 colon): 2.29 µM
TGI (HCT-116 colon): 5.16 µM
GI50 (HL-60(TB) leukemia): 2.77 µM
TGI (HL-60(TB) leukemia): 8.5 µM
GI50 (HOP-62 NSCLC): 2.77 µM
TGI (HOP-62 NSCLC): 6.14 µM
GI50 (HOP-92 NSCLC): 1.76 µM
TGI (HOP-92 NSCLC): 4.93 µM
GI50 (HS 578T breast): 2.05 µM
TGI (HS 578T breast): 6.15 µM
GI50 (HT29 colon): 2.31 µM
TGI (HT29 colon): 4.63 µM
GI50 (IGROV1 ovarian): 3.85 µM
TGI (IGROV1 ovarian): 12.1 µM
GI50 (K-562 leukemia): 3.08 µM
TGI (K-562 leukemia): > 100 µM
GI50 (KM12 colon): 1.97 µM
TGI (KM12 colon): 3.89 µM
GI50 (M14 melanoma): 2.14 µM
TGI (M14 melanoma): 4.66 µM
GI50 (MALME-3M melanoma): 1.93 µM
TGI (MALME-3M melanoma): 4.36 µM
GI50 (MCF7 breast): 2.26 µM
TGI (MCF7 breast): 4.64 µM
GI50 (MDA-MB-231 breast): 2.01 µM
TGI (MDA-MB-231 breast): 4.62 µM
GI50 (MDA-MB-435): 1.84 µM
TGI (MDA-MB-435): 3.97 µM
GI50 (MOLT-4 leukemia): 3.26 µM
TGI (MOLT-4 leukemia): 28.7 µM
GI50 (NCI-H226 lung): 2.04 µM
TGI (NCI-H226 lung): 4.17 µM
GI50 (NCI-H23 lung): 3.44 µM
TGI (NCI-H23 lung): 15.5 µM
